Laboratory results taken from the supplement of paper PMC6045584.
± gives the standard deviation of the averaged measurements.

Tests used:
[1] = compound: CS(=O)(=O)c1ccc(C(=O)Nc2ccc(Cl)c(-c3ccccn3)c2)c(Cl)c1 [VISMODEGIB]; assay: surviving fraction relative to DMSO-only wells; higher = less growth inhibition; settings: exposure time: 5 days
Outline: (§1)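 Tumour cell lines were seeded in log phase at 250–500 cells per well into 384-well plates. Starting 24 hours later, inhibitors were present continuously for five days at 0.5, 1, 5, 10, 50, 100, 500 and 1000 nM. Surviving fraction, from CellTiter-Glo luminescence, is normalised to the median of DMSO-only wells. Three screens per line were required, with replicate Pearson r >0.7 and median Z' >0.3 for a line to be kept.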

[2] = compound: COc1cccc2c1C(=O)c1c(O)c3c(c(O)c1C2=O)C[C@@](O)(C(=O)CO)C[C@@H]3O[C@H]1C[C@H](N)[C@H](O)[C@H](C)O1 [DOXORUBICIN]; assay: as above; settings: exposure time: 5 days
Outline: as §1

Row | Test System | surviving fraction ([1]; 0.5 nM) | surviving fraction ([1]; 1 nM) | surviving fraction ([1]; 5 nM) | surviving fraction ([1]; 10 nM) | surviving fraction ([1]; 50 nM) | surviving fraction ([1]; 100 nM) | surviving fraction ([1]; 500 nM) | surviving fraction ([1]; 1000 nM) | surviving fraction ([2]; 0.5 nM) | surviving fraction ([2]; 1 nM) | surviving fraction ([2]; 5 nM) | surviving fraction ([2]; 10 nM) | surviving fraction ([2]; 50 nM) | surviving fraction ([2]; 100 nM) | surviving fraction ([2]; 500 nM) | surviving fraction ([2]; 1000 nM)
1 | SYO1 SYNOVIAL | 0.953 ± 0.052 | 0.978 ± 0.049 | 0.992 ± 0.014 | 0.994 ± 0.054 | 0.879 ± 0.042 | 0.882 ± 0.041 | 0.884 ± 0.045 | 0.898 ± 0.048 | 0.944 ± 0.065 | 0.906 ± 0.017 | 0.39 ± 0.066 | 0.176 ± 0.05 | 0.0563 ± 0.015 | 0.0384 ± 0.0093 | 0.0205 ± 0.00087 | 0.0309 ± 0.0013
2 | T47D BREAST | 0.993 ± 0.034 | 0.965 ± 0.049 | 1.01 ± 0.025 | 0.988 ± 0.012 | 0.99 ± 0.035 | 1.07 ± 0.015 | 0.983 ± 0.013 | 0.989 ± 0.025 | 1.03 ± 0.03 | 1 ± 0.038 | 0.892 ± 0.018 | 0.673 ± 0.064 | 0.708 ± 0.021 | 0.518 ± 0.023 | 0.197 ± 0.033 | 0.0751 ± 0.0032
3 | U2OS BONE | 1.04 ± 0.019 | 1.07 ± 0.042 | 1.09 ± 0.012 | 1.05 ± 0.013 | 1.02 ± 0.065 | 1.04 ± 0.046 | 1.05 ± 0.028 | 1.07 ± 0.024 | 1.04 ± 0.053 | 1.01 ± 0.015 | 0.86 ± 0.018 | 0.72 ± 0.05 | 0.606 ± 0.037 | 0.376 ± 0.013 | 0.04 ± 0.0017 | 0.0373 ± 0.0021
4 | VCAP PROSTATE | 1.04 ± 0.046 | 1 ± 0.11 | 1.1 ± 0.18 | 1.13 ± 0.22 | 0.905 ± 0.033 | 1.08 ± 0.12 | 0.914 ± 0.066 | 0.981 ± 0.1 | 1.18 ± 0.094 | 0.982 ± 0.1 | 1.1 ± 0.073 | 0.51 ± 0.028 | 1.02 ± 0.052 | 0.291 ± 0.0036 | 0.0377 ± 0.0064 | 0.0397 ± 0.015
5 | VP229 BREAST | 1.27 ± 0.025 | 1.1 ± 0.065 | 1.15 ± 0.13 | 1.14 ± 0.082 | 0.972 ± 0.14 | 1.01 ± 0.017 | 1.15 ± 0.16 | 1.11 ± 0.014 | 1.18 ± 0.067 | 1.11 ± 0.14 | 1 ± 0.11 | 0.931 ± 0.022 | 0.835 ± 0.11 | 0.567 ± 0.027 | 0.569 ± 0.13 | 0.233 ± 0.056
6 | YAMATO SYNOVIAL | 1.24 ± 0.083 | 1.26 ± 0.099 | 1.34 ± 0.087 | 1.37 ± 0.067 | 0.917 ± 0.031 | 0.967 ± 0.15 | 0.805 ± 0.066 | 0.82 ± 0.12 | 1.1 ± 0.058 | 1.14 ± 0.058 | 0.963 ± 0.069 | 0.7417 ± 0.0035 | 0.388 ± 0.018 | 0.329 ± 0.03 | 0.258 ± 0.012 | 0.341 ± 0.016
7 | ZR751 BREAST | 0.853 ± 0.06 | 0.937 ± 0.16 | 0.799 ± 0.15 | 0.971 ± 0.12 | 0.756 ± 0.036 | 0.857 ± 0.037 | 0.835 ± 0.15 | 0.945 ± 0.06 | 1.12 ± 0.095 | 1.08 ± 0.16 | 0.786 ± 0.074 | 0.846 ± 0.12 | 0.585 ± 0.047 | 0.361 ± 0.054 | 0.174 ± 0.018 | 0.0463 ± 0.00058
